One block for each molecule: values may come before it.
Assays:
PSMA = PSMA (Homo sapiens, UniProt Q04609); experiment: In vitro competitive binding assay
LNCaP xenograft = experiment: Biodistribution of 68Ga-labeled compounds in mice bearing LNCaP xenograft; format: in vivo; conditions: 1 h p.i.
Procedure: All chemicals and solvents were obtained from commercial sources, and used without further purification. PSMA-targeted peptides were synthesized using a solid phase approach on an AAPPTec (Louisville, KY) Endeavor 90 peptide synthesizer. Purification of peptides was performed on an Agilent 1260 Infinity II Preparative System equipped with a model 1260 Infinity II preparative binary pump, a model 1260 Infinity variable wavelength detector (set at 220 nm), and a 1290 Infinity II preparative open-bed fraction collector. The HPLC column used was a preparative column (Gemini, NX—C18, 5 μ, 50×30 mm) purchased from Phenomenex. The collected HPLC eluates containing the desired peptide were lyophilized using a Labconco (Kansas City, MO) FreeZone 4.5 Plus freeze-drier. Mass analyses were performed using a Waters LC-MS system with an ESI ion source. C18 Sep-Pak cartridges (1 cm^3, 50 mg) were obtained from Waters (Milford, MA). ^68Ga was eluted from an iThemba Labs (Somerset West, South Africa) generator. Radioactivity of ^68Ga-labeled peptides was measured using a Capintec (Ramsey, NJ) CRC®-25R/W dose calibrator, and the radioactivity of mouse tissues collected from biodistribution studies were counted using a Perkin Elmer (Waltham, MA) Wizard2 2480 automatic gamma counter.

Chain of PSMA (Q04609 whole entry): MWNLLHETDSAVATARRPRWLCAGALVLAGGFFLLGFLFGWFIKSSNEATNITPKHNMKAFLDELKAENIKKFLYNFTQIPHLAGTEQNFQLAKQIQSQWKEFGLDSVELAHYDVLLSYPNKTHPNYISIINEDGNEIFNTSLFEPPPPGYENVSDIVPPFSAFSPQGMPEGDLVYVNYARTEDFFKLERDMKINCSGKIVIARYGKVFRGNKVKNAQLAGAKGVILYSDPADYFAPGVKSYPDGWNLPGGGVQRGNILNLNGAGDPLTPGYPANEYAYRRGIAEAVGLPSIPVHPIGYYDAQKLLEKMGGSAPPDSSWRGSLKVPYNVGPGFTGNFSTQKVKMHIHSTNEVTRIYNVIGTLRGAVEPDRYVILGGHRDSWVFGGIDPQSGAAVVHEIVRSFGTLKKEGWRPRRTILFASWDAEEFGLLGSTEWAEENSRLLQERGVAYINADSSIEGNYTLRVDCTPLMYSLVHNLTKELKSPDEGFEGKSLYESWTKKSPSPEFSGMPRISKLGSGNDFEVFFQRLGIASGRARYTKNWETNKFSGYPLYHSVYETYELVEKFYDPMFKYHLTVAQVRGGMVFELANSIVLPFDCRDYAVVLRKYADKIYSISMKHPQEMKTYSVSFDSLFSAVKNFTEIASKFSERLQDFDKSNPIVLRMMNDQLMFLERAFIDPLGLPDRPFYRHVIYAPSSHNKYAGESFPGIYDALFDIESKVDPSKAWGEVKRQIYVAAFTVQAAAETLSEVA

Ki (PSMA): 461 nM
Structure (SMILES): O=C(O)CCC[C@H](NC(=O)N[C@@H](CSC[C@@H](NC(=O)[C@H](Cc1c2ccccc2cc2ccccc12)NC(=O)C1CCC(CNC(=O)CN2CCN(CC(=O)O)CCN(CC(=O)O)CCN(CC(=O)O)CC2)CC1)C(=O)O)C(=O)O)C(=O)O (stereo partly drawn) [CCZ02033]

Ki (PSMA): 17 nM
Structure (SMILES): O=C(O)CCC[C@H](NC(=O)N[C@@H](CCCCCNC(=O)[C@H](Cc1c2ccccc2cc2ccccc12)NC(=O)C1CCC(CNC(=O)CN2CCN(CC(=O)O)CCN(CC(=O)O)CCN(CC(=O)O)CC2)CC1)C(=O)O)C(=O)O (stereo partly drawn) [CCZ02010]

Ki (PSMA): 1.23 nM
Structure (SMILES): O=C(O)CCC[C@H](NC(=O)N[C@@H](COCCNC(=O)[C@H](Cc1c2ccccc2cc2ccccc12)NC(=O)C1CCC(CNC(=O)CN2CCN(CC(=O)O)CCN(CC(=O)O)CCN(CC(=O)O)CC2)CC1)C(=O)O)C(=O)O (stereo partly drawn) [CCZ02011]

Ki (PSMA): 3.2 nM
Structure (SMILES): O=C(O)CCC[C@H](NC(=O)N[C@@H](CSC[C@H](NC(=O)[C@H](Cc1c2ccccc2cc2ccccc12)NC(=O)C1CCC(CNC(=O)CN2CCN(CC(=O)O)CCN(CC(=O)O)CCN(CC(=O)O)CC2)CC1)C(=O)O)C(=O)O)C(=O)O (stereo partly drawn) [CCZ02032]

Ki (PSMA): 1.61 ± 0.04 nM
Structure (SMILES): O=C(O)CCC[C@H](NC(=O)N[C@@H](CCCONC(=O)[C@H](Cc1c2ccccc2cc2ccccc12)NC(=O)C1CCC(CNC(=O)CN2CCN(CC(=O)O)CCN(CC(=O)O)CCN(CC(=O)O)CC2)CC1)C(=O)O)C(=O)O (stereo partly drawn) [CCZ02018]

The next lines start with the molecule.

Structure (SMILES): O=C(O)CCC[C@@H](OC(=O)N[C@@H](CCCCNC(=O)[C@H](Cc1c2ccccc2cc2ccccc12)NC(=O)[C@H]1CC[C@H](CNC(=O)CCc2ccc(O)c(CN(CCN(CC(=O)O)Cc3cc(CCC(=O)O)ccc3O)CC(=O)O)c2)CC1)C(=O)O)C(=O)O [AR-2-113-2, HBED-CC-PSMA-Aad-carbamate]
Ki (PSMA): 56.3 nM

Structure (SMILES): O=C(O)CCC[C@H](OC(=O)N[C@@H](CCCCNC(=O)[C@H](Cc1c2ccccc2cc2ccccc12)NC(=O)[C@H]1CC[C@H](CNC(=O)CN2CCN(CC(=O)O)CCN(CC(=O)O)CCN(CC(=O)O)CC2)CC1)C(=O)O)C(=O)O [AR-2-050-1, DOTA-PSMA-Aad-carbamate]
Ki (PSMA): 8.99 nM

Structure (SMILES): O=C(O)CCC[C@@H](OC(=O)N[C@@H](CCCCNC(=O)[C@H](Cc1c2ccccc2cc2ccccc12)NC(=O)[C@H]1CC[C@H](CNC(=O)CN2CCN(CC(=O)O)CCN(CC(=O)O)CCN(CC(=O)O)CC2)CC1)C(=O)O)C(=O)O [AR-2-050-2, DOTA-PSMA-Aad-carbamate]
Ki (PSMA): 240 nM

Structure (SMILES): O=C(O)CCC[C@H](OC(=O)N[C@@H](CCCCNC(=O)[C@H](Cc1c2ccccc2cc2ccccc12)NC(=O)[C@H]1CC[C@H](CNC(=O)CCc2ccc(O)c(CN(CCN(CC(=O)O)Cc3cc(CCC(=O)O)ccc3O)CC(=O)O)c2)CC1)C(=O)O)C(=O)O.[68Ga] [^68Ga-AR-113-1]
Biodistribution, Adrenal (Avg) (LNCaP xenograft): 1.22 % ID/g
Biodistribution, Blood (Avg) (LNCaP xenograft): 2.42 % ID/g
Biodistribution, Bone (Avg) (LNCaP xenograft): 0.34 % ID/g
Biodistribution, Brain (Avg) (LNCaP xenograft): 0.05 % ID/g
Biodistribution, Fat (Avg) (LNCaP xenograft): 0.56 % ID/g
Biodistribution, Heart (Avg) (LNCaP xenograft): 0.85 % ID/g
Biodistribution, Intestine (Avg) (LNCaP xenograft): 1.36 % ID/g
Biodistribution, Kidney (Avg) (LNCaP xenograft): 27.16 % ID/g
Biodistribution, LNCaP tumor (Avg) (LNCaP xenograft): 11.86 % ID/g
Biodistribution, Lacrimal (Avg) (LNCaP xenograft; Lacrimal): 0.13 % ID/g
Biodistribution, Liver (Avg) (LNCaP xenograft): 1.31 % ID/g
Biodistribution, Lungs (Avg) (LNCaP xenograft): 1.93 % ID/g
Biodistribution, Muscle (Avg) (LNCaP xenograft): 0.49 % ID/g
Biodistribution, Pancreas (Avg) (LNCaP xenograft): 0.34 % ID/g
Biodistribution, Salivary gland (Avg) (LNCaP xenograft): 1.05 % ID/g
Biodistribution, Spleen (Avg) (LNCaP xenograft): 0.61 % ID/g
Biodistribution, Stomach (Avg) (LNCaP xenograft): 0.22 % ID/g
Biodistribution, Testes (Avg) (LNCaP xenograft): 0.79 % ID/g
Biodistribution, Urine (Avg) (LNCaP xenograft): 237.55 % ID/g

Structure (SMILES): O=C(O)CC[C@H](NC(=O)N[C@@H](C[C@@H]1C[C@H]1CNC(=O)[C@H](Cc1c2ccccc2cc2ccccc12)NC(=O)[C@H]1CC[C@H](CNC(=O)CN2CCN(CC(=O)O)CCN(CC(=O)O)CCN(CC(=O)O)CC2)CC1)C(=O)O)C(=O)O [ADZ-4-101]
Ki (PSMA): 2.42 nM

Structure (SMILES): O=C(O)CSCC(NC(=O)NC(CNC(=O)CNC(=O)C(Cc1c2ccccc2cc2ccccc12)NC(=O)C1CCC(CNC(=O)CN2CCN(CC(=O)O)CCN(CC(=O)O)CCN(CC(=O)O)CC2)CC1)C(=O)O)C(=O)O.[68Ga] (stereo not drawn) [68Ga-CCZ01194]
Biodistribution, Adrenal (Avg) (LNCaP xenograft): 0.65 % ID/g
Biodistribution, Blood (Avg) (LNCaP xenograft): 0.98 % ID/g
Biodistribution, Bone (Avg) (LNCaP xenograft): 0.14 % ID/g
Biodistribution, Brain (Avg) (LNCaP xenograft): 0.03 % ID/g
Biodistribution, Fat (Avg) (LNCaP xenograft): 0.27 % ID/g
Biodistribution, Heart (Avg) (LNCaP xenograft): 0.27 % ID/g
Biodistribution, Intestine (Avg) (LNCaP xenograft): 0.79 % ID/g
Biodistribution, Kidney (Avg) (LNCaP xenograft): 7.33 % ID/g
Biodistribution, LNCaP tumor (Avg) (LNCaP xenograft): 9.12 % ID/g
Biodistribution, Liver (Avg) (LNCaP xenograft): 0.35 % ID/g
Biodistribution, Lungs (Avg) (LNCaP xenograft): 0.70 % ID/g
Biodistribution, Muscle (Avg) (LNCaP xenograft): 0.14 % ID/g
Biodistribution, Pancreas (Avg) (LNCaP xenograft): 0.15 % ID/g
Biodistribution, Salivary gland (Avg) (LNCaP xenograft): 0.34 % ID/g
Biodistribution, Seminal (Avg) (LNCaP xenograft): 0.13 % ID/g
Biodistribution, Spleen (Avg) (LNCaP xenograft): 0.24 % ID/g
Biodistribution, Stomach (Avg) (LNCaP xenograft): 0.09 % ID/g
Biodistribution, Testes (Avg) (LNCaP xenograft): 0.23 % ID/g
Biodistribution, Thyroid (Avg) (LNCaP xenograft): 0.29 % ID/g
Biodistribution, Urine (Avg) (LNCaP xenograft): 311.63 % ID/g

Structure (SMILES): O=C(O)CCCC(NC(=O)NC(CCCONC(=O)C(Cc1c2ccccc2cc2ccccc12)NC(=O)C1CCC(CNC(=O)CN2CCN(CC(=O)O)CCN(CC(=O)O)CCN(CC(=O)O)CC2)CC1)C(=O)O)C(=O)O.[68Ga] (stereo not drawn) [^68Ga-CCZ02018]
Biodistribution, Adrenal (Avg) (LNCaP xenograft): 0.53 % ID/g
Biodistribution, Blood (Avg) (LNCaP xenograft): 0.67 % ID/g
Biodistribution, Bone (Avg) (LNCaP xenograft): 0.13 % ID/g
Biodistribution, Brain (Avg) (LNCaP xenograft): 0.03 % ID/g
Biodistribution, Fat (Avg) (LNCaP xenograft): 0.17 % ID/g
Biodistribution, Heart (Avg) (LNCaP xenograft): 0.18 % ID/g
Biodistribution, Intestine (Avg) (LNCaP xenograft): 0.25 % ID/g
Biodistribution, Kidney (Avg) (LNCaP xenograft): 6.91 % ID/g
Biodistribution, LNCaP tumor (Avg) (LNCaP xenograft): 18.88 % ID/g
Biodistribution, Liver (Avg) (LNCaP xenograft): 0.21 % ID/g
Biodistribution, Lungs (Avg) (LNCaP xenograft): 0.58 % ID/g
Biodistribution, Muscle (Avg) (LNCaP xenograft): 0.10 % ID/g
Biodistribution, Pancreas (Avg) (LNCaP xenograft): 0.13 % ID/g
Biodistribution, Salivary gland (Avg) (LNCaP xenograft): 0.22 % ID/g
Biodistribution, Seminal (Avg) (LNCaP xenograft): 0.27 % ID/g
Biodistribution, Spleen (Avg) (LNCaP xenograft): 0.24 % ID/g
Biodistribution, Stomach (Avg) (LNCaP xenograft): 0.07 % ID/g
Biodistribution, Testes (Avg) (LNCaP xenograft): 0.22 % ID/g
Biodistribution, Thyroid (Avg) (LNCaP xenograft): 0.20 % ID/g
Biodistribution, Urine (Avg) (LNCaP xenograft): 613.72 % ID/g

Structure (SMILES): O=C(O)CSCC(NC(=O)NC(Cc1cn(CCNC(=O)C(Cc2c3ccccc3cc3ccccc23)NC(=O)C2CCC(CNC(=O)CN3CCN(CC(=O)O)CCN(CC(=O)O)CCN(CC(=O)O)CC3)CC2)nn1)C(=O)O)C(=O)O.[68Ga] (stereo not drawn) [^68Ga-CCZ01186]
Biodistribution, Adrenal (Avg) (LNCaP xenograft): 0.29 % ID/g
Biodistribution, Blood (Avg) (LNCaP xenograft): 0.72 % ID/g
Biodistribution, Bone (Avg) (LNCaP xenograft): 0.13 % ID/g
Biodistribution, Brain (Avg) (LNCaP xenograft): 0.02 % ID/g
Biodistribution, Fat (Avg) (LNCaP xenograft): 0.16 % ID/g
Biodistribution, Heart (Avg) (LNCaP xenograft): 0.57 % ID/g
Biodistribution, Intestine (Avg) (LNCaP xenograft): 0.08 % ID/g
Biodistribution, Kidney (Avg) (LNCaP xenograft): 2.20 % ID/g
Biodistribution, LNCaP tumor (Avg) (LNCaP xenograft): 0.89 % ID/g
Biodistribution, Liver (Avg) (LNCaP xenograft): 0.23 % ID/g
Biodistribution, Lungs (Avg) (LNCaP xenograft): 0.21 % ID/g
Biodistribution, Muscle (Avg) (LNCaP xenograft): 0.23 % ID/g
Biodistribution, Pancreas (Avg) (LNCaP xenograft): 0.16 % ID/g
Biodistribution, Salivary gland (Avg) (LNCaP xenograft): 0.40 % ID/g
Biodistribution, Seminal (Avg) (LNCaP xenograft): 6.65 % ID/g
Biodistribution, Spleen (Avg) (LNCaP xenograft): 0.34 % ID/g
Biodistribution, Stomach (Avg) (LNCaP xenograft): 0.14 % ID/g
Biodistribution, Testes (Avg) (LNCaP xenograft): 0.17 % ID/g
Biodistribution, Thyroid (Avg) (LNCaP xenograft): 2.49 % ID/g
Biodistribution, Urine (Avg) (LNCaP xenograft): 439.81 % ID/g

Structure (SMILES): O=C(O)CC[C@H](NC(=O)N[C@@H](C[C@H]1C[C@@H]1CNC(=O)[C@H](Cc1c2ccccc2cc2ccccc12)NC(=O)[C@H]1CC[C@H](CNC(=O)CN2CCN(CC(=O)O)CCN(CC(=O)O)CCN(CC(=O)O)CC2)CC1)C(=O)O)C(=O)O [PD-6-49]
Ki (PSMA): 11.9 nM

Structure (SMILES): O=C(O)CCC[C@H](OC(=O)N[C@@H](CCCCNC(=O)[C@H](Cc1c2ccccc2cc2ccccc12)NC(=O)[C@H]1CC[C@H](CNC(=O)CCc2ccc(O)c(CN(CCN(CC(=O)O)Cc3cc(CCC(=O)O)ccc3O)CC(=O)O)c2)CC1)C(=O)O)C(=O)O [AR-2-113-1, HBED-CC-PSMA-Aad-carbamate]
Ki (PSMA): 3.44 nM
